What was measured:
[1] = Crystal; visual observation
[2] = mn = molality of the nth substance listed, in mol/kg; conditions: 303.15 K, 100 kPa, Liquid, Alternating current cell with electrodes
[3] = wn = mass fraction of the nth substance listed; conditions: 101 kPa, Liquid, Alternating current cell with electrodes, w1 = 0.01

CCCCCCCCCCCCCCCC[N+](C)(C)CC[N+](C)(C)CCCCCCCCCCCCCCCC.[Br-].[Br-]
Conditions	Normal melting temperature [°C]
[1]	175.00

CCCCCCCCCCCCCCCC[N+](C)(C)CC[N+](C)(C)CCCCCCCCCCCCCCCC.[Br-].[Br-] + O
[2]
Conditions	electrical conductivity [S/m]
m1 = 5e-06	0.00031
m1 = 1e-05	0.0004
m1 = 1.5e-05	0.00049
m1 = 2e-05	0.00058
m1 = 2.5e-05	0.00065
m1 = 3e-05	0.00073
m1 = 3.5e-05	0.0008
m1 = 4e-05	0.00082
m1 = 5e-05	0.00086
m1 = 6e-05	0.00088

CCCCCCCCCCCC[N+](C)(C)CC[N+](C)(C)CCCCCCCCCCCC.[Br-].[Br-] [1,2-bis(dimethyldodecylammonium)ethane dibromide]
Conditions	Normal melting temperature [°C]
[1]	157.00

CCCCCCCCCCCC[N+](C)(C)CC[N+](C)(C)CCCCCCCCCCCC.[Br-].[Br-] [1,2-bis(dimethyldodecylammonium)ethane dibromide] + O
Conditions	electrical conductivity [S/m]
[2], m1 = 0.000201	0.00422
[2], m1 = 0.000301	0.00612
[2], m1 = 0.000402	0.00816
[2], m1 = 0.000503	0.00967
[2], m1 = 0.000603	0.012
[2], m1 = 0.000703	0.0133
[2], m1 = 0.000803	0.0162
[2], m1 = 0.001206	0.0197
[2], m1 = 0.001407	0.0205
[2], m1 = 0.001608	0.0212
[2], m1 = 0.001809	0.022
[2], m1 = 0.00201	0.0226
[2], m1 = 0.002211	0.0231
[3], 275.15 K	0.0196
[3], 276.25 K	0.0196
[3], 277.35 K	0.0196
[3], 278.15 K	0.0196
[3], 279.45 K	0.0197
[3], 280.25 K	0.0197
[3], 281.35 K	0.0197
[3], 282.15 K	0.0197
[3], 283.15 K	0.0198
[3], 284.25 K	0.0198
[3], 285.15 K	0.0198
[3], 285.65 K	0.0198
[3], 286.15 K	0.0199
[3], 288.15 K	0.0202
[3], 289.15 K	0.0203
[3], 290.15 K	0.0204
[3], 291.15 K	0.0205
[3], 292.15 K	0.0206
[3], 293.15 K	0.021
[3], 295.75 K	0.0212
[3], 298.15 K	0.0215
[3], 299.65 K	0.0218
[3], 301.65 K	0.022
[3], 303.45 K	0.0222
[3], 305.75 K	0.0225
[3], 308.15 K	0.0228
[3], 310.25 K	0.0229
[3], 311.15 K	0.023
[3], 313.15 K	0.0232
[3], 315.15 K	0.0235
[3], 317.95 K	0.0237
[3], 318.15 K	0.024
[3], 320.55 K	0.0242
[3], 323.15 K	0.0244
[3], 325.55 K	0.0245
[3], 327.15 K	0.0248
[3], 329.35 K	0.0249
[3], 331.55 K	0.025
[3], 334.15 K	0.0252
[3], 335.55 K	0.0254
[3], 337.95 K	0.0255
[3], 338.35 K	0.0258
[3], 340.45 K	0.026
[3], 343.15 K	0.0263
[3], 345.15 K	0.0265
[3], 347.15 K	0.0266
[3], 349.15 K	0.0267
[3], 353.05 K	0.027

CCCCCCCCCCCCCCCC[N+](C)(C)C.[Br-] [N,N,N-trimethyl-1-hexadecanaminium bromide]
Conditions	Normal melting temperature [°C]
[1]	247.00

CCCCCCCCCC[N+](CC)(CC)CCCCCCCCCC.[Br-] [didecyldiethylammonium bromide]
Conditions	Normal melting temperature [°C]
[1]	45.00

CCCCCCCCCCCC[N+](CC)(CC)CCCCCCCCCCCC.[Br-] [didodecyldiethylammonium bromide]
Conditions	Normal melting temperature [°C]
[1]	52.20

CCCCCCCCCCCCCCCC[N+](CC)(CC)CCCCCCCCCCCCCCCC.[Br-] [diethyldihexadecylammonium bromide]
Conditions	Normal melting temperature [°C]
[1]	73.80

CCCCCCCCCCCC[N+](C)(C)C.[Br-] [dodecyltrimethylammonium bromide]
Conditions	Normal melting temperature [°C]
[1]	265.00

Reference: the NIST ThermoML archive (doi:10.1021/acs.jced.5b00367)
